Experimental data as given in US20100137315A1, “Sphingosine Kinase Inhibitors and Methods of Their Use” (APOGEE BIOTECHNOLOGY CORPORATION, priority 2005, published 2010).

How the values were obtained:
female DBA/1 mice = assay: Collagen-Induced Arthritis model; assay type: in vivo, mouse; conditions: 50 mg/kg orally
Experimental: FIG. 10. Effects of Compound 8 on disease progression in the collagen-induced arthritis (CIA) model in mice. Female DBA/1 mice were injected with collagen, boosted after 3 weeks and then monitored for symptoms of arthritis. Upon disease manifestation, groups of mice were treated for 12 days as follows: (▴) Compound 8 (50 mg/kg given orally each day for 6 days per week); or (▪) vehicle (PEG400 given under the same schedule). On the indicated Day of treatment, the average clinical score (A) and the average hind paw diameter (B) was determined. * p<0.05 versus PEG400 alone group.
The anti-arthritis activities of the SK inhibitor Compound 8 were assessed in the Collagen-Induced Arthritis model. Female DBA/1 mice were injected subcutaneously in the tail with chicken immunization-grade type II collagen emulsified in complete Freund's adjuvant at 2 mg/mL. Three weeks later, the mice received a collagen booster in incomplete Freund's adjuvant and were monitored daily thereafter for arthritic symptoms. Once mice reached a threshold paw thickness and clinical score, they were randomized into the following treatment groups: Compound 8 (50 mg/kg given orally each day for 6 days per week) or vehicle (Polyethyleneglycol 400 given under the same schedule). The severity of disease in each animal was quantified by measurement of the hind paw volume with digital calipers. Each paw was scored based upon perceived inflammatory activity, in which each paw receives a score of 0-3 as follows: 0=normal; 1=mild, but definite redness and swelling of the ankle or wrist, or apparent redness and swelling limited to individual digits, regardless of the number of affected digits; 2=moderate redness and swelling of the ankle and wrist and 3=severe redness and swelling of the entire paw including digits, with an overall score ranging from 0-12. Differences among treatment groups were tested using ANOVA.
On Day 12, the mice were euthanized and their hind limbs were removed, stripped of skin and muscle, formalin-fixed, decalcified and paraffin-embedded. The limbs were then sectioned and stained with hematoxylin/eosin. Tibiotarsal joints were evaluated histologically for severity of inflammation and synovial hyperplasia.

mice = assay: Chronic DSS-colitis model of IBD (35-day); assay type: in vivo, mouse
Experimental: FIG. 8. Effects of Compound 8 on the […] (DAI) in the chronic DSS-colitis model. Mice received 2 cycles (7 days per cycle) of DSS (1.5% cycle 1 and 1% cycle 2), 2 cycles of normal drinking water and were randomized by DAI on Day 28 into groups of 8 mice. The mice were then treated as follows: No DSS (▪)— normal drinking water and orally dosed with PEG400 every day for 7 days (water control); DSS alone (▴)— drinking water containing 1.5% DSS and orally dosed with PEG daily for 7 days; DSS+Compound 8 (▾)-drinking water containing 1.5% DSS and orally dosed with Compound 8 (50 mg/kg) every day for 7 days; DSS+Dipentum (♦)— drinking water containing 1.5% DSS and orally dosed with Dipentum (50 mg/kg). *p<0.001 versus No DSS group.
FIG. 9. Effects of Compound 8 on S1P levels in the colons of the animals in the chronic DSS-colitis model. Colon samples from mice described in FIG. 8 were extracted and assayed for the levels of S1P by LC/MS/MS. Values represent the mean±sd for 8 samples per group; * p<0.05 versus No DSS group.
A 35-day model of IBD was used to evaluate the effectiveness of the SK inhibitor in mice that experience multiple cycles of DSS-induced inflammation. This chronic model is similar to the acute model, except that the DSS concentration in the drinking water is lower and animals receive periodic exposure to DSS (DSS on days 1-7, water on Days 8-13, DSS on day 14-21, water on Days 22-27 and then DSS until the completion of the study on Day 35). In these experiments, treatment of the mice with an SK inhibitor or Dipentum began on Day 28 and continued daily until the completion of the study. The DAI index was monitored every other day until Day 28 and then daily until Day 35. Animals were sacrificed on Day 35, and changes in the colon length and cytokine profiles were measured.
As a final measure of the effects of the SK inhibitors in this chronic model, S1P levels were assayed in the colons of the DSS-treated animals using an LC-MS/MS method. […] Ratios of analyte to internal standard for each sphingolipid were determined. […]

## CCCC(=O)Oc1ccc(C=CC(=O)Nc2nc(-c3ccc(Cl)cc3)cs2)cc1OC [Compound 8, Butyric acid 4-{2-[4-(4-chloro-phenyl)-thiazol-2-ylcarbamoyl]-vinyl}-2-methoxy-phenyl ester]
Female DBA/1 mice; 6 days per week, Day 12
  reduction in clinical score vs vehicle: 65%
  reduction in the increase in hind paw thickness vs vehicle: 72%
Female DBA/1 mice; Day 12
  histologic damage of tibiotarsal joints: significantly reduced
Female DBA/1 mice; significant decreases beginning at Day 4
  inflammation response (Average Clinical Score, Average Hind Paw Diameter): dramatically slowed
mice; 50 mg/kg oral daily Days 28-35, Day 35
  colon length: 5.8±0.1 cm
mice; 50 mg/kg oral daily Days 28-35, P<0.001 on Day 35
  increase in DAI during third DSS exposure: significantly suppressed
mice; oral 50 mg/kg daily, 7 days prior to sacrifice
  S1P levels in colon (LC-MS/MS): significant reductions
